The EC50 is the concentration giving half of the maximal effect. A low value points to greater potency. What is called IC50 is the concentration needed to halve the response being measured.

Results on 17 compounds are retold here after patent US20240016901A1, “COMPOSITIONS AND METHODS FOR PREVENTING AND TREATING SARS-COV-2 INFECTION” (priority 2020, published 2024).

In data set [1] the test system is SARS-CoV-2. The experiment in a line: microbe, parasite or virus in culture. The class given is cell-based. To be noted: for IC50: read-out: IC50 against SARS-CoV-2 infection.
In data set [2] the test system is SigmaR1. To be noted: read-out: SigmaR1 IC50; literature values (Moebius et al. 1997; Diaz et al. 2012); cited from earlier work.
The test system of data set [3] is Huh-7 cells.
Data set [4] has as its system SigmaR2. To be noted: literature value (Diaz et al. 2012); cited from earlier work.
Data set [5] relates to SARS-CoV-2. To be noted: Gordon et al. 2020; cited from earlier work.
Where [6] appears, read: Severe acute respiratory syndrome coronavirus 2, Huh-7.
The mark [7] stands for this setting: Severe acute respiratory syndrome coronavirus 2, Huh-7 cells, MOI 0.2, 10-point two-fold dilution dose response in triplicate.
Where [8] appears, read: Severe acute respiratory syndrome coronavirus 2, Huh-7 cells.

Where two headings read alike, the source gives them in different places.

For `COc1cc(Nc2c(C#N)cnc3cc(OCCCN4CCN(C)CC4)c(OC)cc23)c(Cl)cc1Cl` [Bosutinib], it took 28 nM to reach a half-maximal effect in data set [1] (setting [6]) (EC50).

With `C[C@@](Cc1ccc(O)c(O)c1)(NN)C(=O)O` [Carbidopa], the “exacerbation of SARS-CoV-2 infection” value in data set [1] (Huh-7 cells) is on record as “exacerbate SARS-CoV-2 infection”.

In data set [1], `CC(C)N=c1cc2n(-c3ccc(Cl)cc3)c3ccccc3nc-2cc1Nc1ccc(Cl)cc1` [Clofazamine] had an EC50 of 105 nM.

In data set [1] (setting [7]), `C=C1[C@H](CO)[C@@H](O)C[C@@H]1n1cnc2c(=O)[nH]c(N)nc21` [Entecavir] had an EC50 of 201 nM.

`Cc1cnc(Nc2ccc(OCCN3CCCC3)cc2)nc1Nc1cccc(S(=O)(=O)NC(C)(C)C)c1` [Fedratinib] had an EC50 in data set [1] (setting [7]) of 25 nM. Moreover, the IC50 in data set [1] (setting [8]) was determined as 25 nM.

In the case of `CCc1nc(C(N)=O)c(Nc2ccc(N3CCC(N4CCN(C)CC4)CC3)c(OC)c2)nc1NC1CCOCC1` [Gilteritinib], the concentration giving a half-maximal response (EC50) in data set [1] (setting [7]) stood at 207 nM.

Turning to `O=C(NC1CCN(CCCCC2(C(=O)NCC(F)(F)F)c3ccccc3-c3ccccc32)CC1)c1ccccc1-c1ccc(C(F)(F)F)cc1` [Lomitapide], the half-maximal effective concentration (EC50) in data set [1] (setting [7]) stood at 1580 nM.

In the case of `CCN(CC)CCNC(=O)c1cc(Cl)c(N)cc1OC` [Metoclopramide], the “antiviral activity against SARS-CoV-2 (in words)” value (“antiviral activity … (in words)” for short) in data set [1] (Huh-7 cells) is “dose dependent antiviral activity”. The compound also had an EC50 in data set [1] (setting [7]) of 469 nM.

`O=C(Nc1ccc([N+](=O)[O-])cc1Cl)c1cc(Cl)ccc1O` [Niclosamide] came in with an EC50 in data set [1] (setting [7]) of 142 nM.

In turn, `CCC(CC)COC(=O)[C@H](C)N[P@](=O)(OC[C@H]1O[C@@](C#N)(c2ccc3c(N)ncnn23)[C@H](O)[C@@H]1O)Oc1ccccc1` [Remdesivir] showed an EC50 in data set [1] (setting [6]) of 95 nM.

Consider `Cc1cc(OCCN2CCOCC2)nn1-c1ccc2ccccc2c1` [S1RA, 4-{2-[5-methyl-1-(naphthalen-2-yl)-1H-pyrazol-3-yloxy]ethyl}morpholine], for which the IC50 in data set [2] is 17 nM; in data set [4], over 1000 nM; in data set [1] (setting [8]), 222 nM. The cell toxicity result in data set [3] was “limited cell toxicity”. In data set [5], the “antiviral activity in Vero-E6 cells” value is “not observed”. The EC50 in data set [1] (setting [7]) was 222 nM.

Take `Nc1nc2nc[nH]c2c(=S)[nH]1` [Thioguanine]: the EC50 in data set [1] (setting [7]) worked out at 232 nM.

As for `COc1ccc(CCN(C)CCCC(C#N)(c2ccc(OC)c(OC)c2)C(C)C)cc1OC` (stereo not shown) [Verapamil], a half-maximal response in data set [1] (setting [6]) (EC50) required 458 nM.

`CC(NC(=O)[C@H](Cc1ccccc1)NC(=O)OCc1ccccc1)C(=O)CF` (stereo partly shown) [Z-FA-FMK] registered an EC50 in data set [1] of 107 nM. Moreover, the “antiviral activity … (in words)” value in data set [1] (Huh-7 cells) is given as “potent antiviral activity”.

`CC(C)(C#N)c1cc(Cn2cncn2)cc(C(C)(C)C#N)c1` [anastrozole]: the “exacerbation of SARS-CoV-2 infection” value in data set [1] (Huh-7 cells) was “exacerbate SARS-CoV-2 infection”.

As to `C[C@@H]1CCN(C(=O)CC#N)C[C@@H]1N(C)c1ncnc2[nH]ccc12` [tofacitinib], the “antiviral activity … (in words)” value in data set [1] (Huh-7 cells) was “the latter was the only one active”.

On to “transferrin: the protein transferrin (Sigma Aldrich, T2036)”, for which, in data set [1] (Huh-7 cells, protein at 2.3 μM, FIG. 6E), the “anti-SARS-CoV-2 activity, percentage of infected Huh-7 cells” value is listed as “devoid of any anti-SARS-CoV-2 activity”.
